This passage reports IC50 and MIC results from US20180312493A1, “Antibiotic Compounds, Pharmaceutical Formulations Thereof And Methods And Uses Therefor” (Simon Fraser University, priority 2015, published 2018).

SMILES strings stand for the structures. In brackets after ≈: the same amount, converted by molar mass.

One may read the IC50 as the concentration needed to halve the response being measured. A high value points to a need for much substance. For orientation: MIC means the lowest concentration that inhibits growth of the organism.

The target of one assay is T1, MRSA Pyk (Staphylococcus aureus, UniProt Q6GG09).
T1 construct: made in house; host or cells: E. coli BL-21 (DE3)
Put plainly: MRSA pyruvate kinase (PK) activity, continuous LDH-coupled assay. The class given is biochemical, methicillin resistant S. aureus (MRSA252). The method in brief: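 Activity monitored continuously as absorbance change at 340 nm from NADH oxidation via coupled lactate dehydrogenase, reactions started with 15 nM recombinant His-tagged PK (MRSA or human isoform) and run at 30° C for up to 5 min. Ki derived by varying inhibitor (0-400 nM) and PEP (2-20 mM) at 2 mM ADP; IC50 by four-parameter fitting.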

The next assay relates to VRE#2 (2010A). Put plainly: In vitro susceptibility, broth microdilution (MIC). The class given is cell-based, vancomycin resistant Enterococci. As to conditions: VRE#2 (2010A); read-out: Antimicrobial activity (MIC) VRE#2. The method, boiled down:
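MIC determined by CLSI 2-fold broth microdilution in cation-adjusted Mueller–Hinton broth at ~2.5×10^5 CFU/ml, final compound 0.031–64 μg/ml, 18–24 h at 37 °C. MIC is the lowest concentration giving complete growth inhibition by background-corrected OD600 versus compound-free wells; duplicate or triplicate wells, replicated at least twice.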

The subject of assay [1] is A. baumannii (ATCC 19606). Put plainly: In vitro susceptibility, broth microdilution (MIC). Conditions: Acinetobacter baumannii, ATCC19606; A. baumannii ATCC 19606 (values without asterisk); read-out: Antimicrobial activity (MIC) A. baumannii. The class given is cell-based. An excerpt:
(§1) Epidemic methicillin resistant S. aureus (MRSA) strain sequenced at the Sanger Centre (MRSA252, NRS71) was obtained from NARSA (Network on Antimicrobial Resistance in S. aureus). Methicillin sensitive S. aureus (ATCC 29213 and 25923), methicillin resistant S. aureus (ATCC BAA-1762), and Salmonella typhimurium (ATCC BAA-185) were obtained from ATCC, The Global Bioresource Center. Acinetobacter baumannii (ATCC 19606 and ATCC 17978), Klebsiella pneumonia (C238), vancomycin resistant Enterococci #2 (2010A) (VRE#2), MRSA (USA400, MW2) and Pseudomonas aeruginosa (PA0-1) were obtained from the laboratory of Dr B. B. Finlay at the University of British Columbia (Vancouver, Canada).
(§2) The antimicrobial activities of PK inhibitor candidates were determined using the 96-well microtiter standard 2-fold serial broth microdilution method as described by CLSI (formerly NCCLS) with the various gram-positive and gram-negative bacteria species mentioned above. Bacteria from a single colony were grown, overnight in either BHI Broth (VRE), mueller hinton broth (S. aureus 29213; MRSA USA400, A. baumannii 19606, MRSA BAA-1762) or L-broth (P. aeruginosa, S. typhimurium, K. pneumonia and A. baumannii 17978). Each compound was prepared in DMSO with 2-fold serial dilutions to give a final concentration of, 0.031 to 64 μg/ml. 10 μl of the compound solution was then added, in duplicate, to either, 190 μl of cation adjusted mueller hinton broth (CAMHB) or 190 μl CAMHB containing ˜2.5×10^5 CFU/ml of bacteria (final compound concentration 0.031 to 64 μg/ml). Culture plates were incubated for 18-24 h at 37° C., and optical density at 600 nm (OD600) was measured using a Benchmark Plus™ microplate spectrophotometer (Bio-Rad™). The absorbance control values for the series containing CAMHB and inhibitor were subtracted as background from the corresponding infected wells. Minimal inhibitory concentration (MIC) was defined as the lowest concentration of test compound leading to complete inhibition of cell growth in relation to compound-free control wells as determined by optical density. Vancomycin, methicillin and ciprofloxicin were used as reference compounds. All assays were run in triplicate or duplicate. Experiments were replicated at least twice to verify reproducibility using the above conditions.
Background: Broth dilution looks for growth in wells or tubes with falling amounts of substance.

The next assay concerns S. aureus (ATCC29213). Put plainly: In vitro susceptibility, broth microdilution (MIC). Conditions: Staphylococcus aureus; S. aureus ATCC29213; 18-24 h, 37 C; read-out: Antimicrobial activity (MIC) S. aureus ATCC29213. The class given is cell-based. The method, boiled down:
(§3)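 CLSI 2-fold serial broth microdilution; K. pneumoniae C238 grown in L-broth, S. aureus ATCC 29213 in Mueller Hinton broth, plates incubated 18–24 h at 37 °C. MIC taken as lowest concentration giving complete growth inhibition by OD600 versus compound-free wells, background-subtracted.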

A further assay concerns K. pneumoniae (C238). Put plainly: In vitro susceptibility, broth microdilution (MIC). The class given is cell-based. Conditions: Klebsiella pneumoniae; K. pneumoniae (C238); read-out: Antimicrobial activity (MIC) K. pneumoniae. The method in brief:
as §3

Assay [2] relates to A. baumannii (ATCC 17978). Put plainly: In vitro susceptibility, broth microdilution (MIC). Conditions: Acinetobacter baumannii, ATCC17978; A. baumannii ATCC 17978 (values marked *); read-out: Antimicrobial activity (MIC) A. baumannii. The class given is cell-based.
Source text: as §1, §2

T1 sequence (Q6GG09 whole entry): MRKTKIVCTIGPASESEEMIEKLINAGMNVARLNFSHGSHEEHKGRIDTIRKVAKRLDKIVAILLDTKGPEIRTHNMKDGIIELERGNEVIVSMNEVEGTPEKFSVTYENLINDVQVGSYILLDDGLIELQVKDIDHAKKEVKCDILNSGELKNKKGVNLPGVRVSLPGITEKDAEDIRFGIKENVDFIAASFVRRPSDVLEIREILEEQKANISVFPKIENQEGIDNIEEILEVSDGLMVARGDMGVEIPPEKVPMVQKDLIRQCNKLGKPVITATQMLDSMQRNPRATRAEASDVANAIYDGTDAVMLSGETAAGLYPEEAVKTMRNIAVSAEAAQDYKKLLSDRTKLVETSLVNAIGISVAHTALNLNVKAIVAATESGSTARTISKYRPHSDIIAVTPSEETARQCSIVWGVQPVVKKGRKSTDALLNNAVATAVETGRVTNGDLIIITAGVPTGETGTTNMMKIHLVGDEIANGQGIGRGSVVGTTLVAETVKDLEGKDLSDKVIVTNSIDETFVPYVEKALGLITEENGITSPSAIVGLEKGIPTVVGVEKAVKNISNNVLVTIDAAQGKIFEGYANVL

As for `CN(C)CCNC(=O)c1c(-c2cc3cc(Cl)ccc3[nH]2)[nH]c2cc(Br)ccc12` [Compound 73, 6-Bromo-5′-chloro-N-(2-(dimethylamino)ethyl)-1H,1′H-[2,2′-biindole]-3-carboxamide], at MRSA Pyk, the IC50 was less than 100 nM. The minimal inhibitory concentration (MIC) in the assay on VRE#2 (2010A) was 8 µg/mL (≈ 17.4 µM); in assay [1], 64 µg/mL (≈ 139 µM); in the assay with S. aureus (ATCC29213), 8 µg/mL (≈ 17.4 µM); in the assay on K. pneumoniae (C238), 8 µg/mL (≈ 17.4 µM).

Compound `NC(=O)[C@@H]1CCCN1CCNC(=O)c1c(-c2cc3cc(Cl)ccc3[nH]2)[nH]c2cc(Br)ccc12` [Compound 120, (S)-6-Bromo-N-(2-(2-carbamoylpyrrolidin-1-yl)ethyl)-5′-chloro-1H,1′H-[2,2′-biindole]-3-carboxamide] returned a 50% inhibitory concentration (IC50) against MRSA Pyk of less than 100 nM. In addition, the minimum inhibitory concentration (MIC) (in assay [2]; in the assay with S. aureus (ATCC29213)) was more than 64 µg/mL in each case.

`COCC(=O)N1CCCN(CCNC(=O)c2c(-c3cc4cc(Cl)ccc4[nH]3)[nH]c3cc(Br)ccc23)CC1` [Compound 121, 6-Bromo-5′-chloro-N-(2-(4-(2-methoxyacetyl)-1,4-diazepan-1-yl)ethyl)-1H,1′H-[2,2′-biindole]-3-carboxamide] registered an IC50 against MRSA Pyk of less than 100 nM. Also, the MIC (in assay [2]; in the assay with S. aureus (ATCC29213)) was more than 64 µg/mL throughout.

At MRSA Pyk, `O=C(NCCN1CCC[C@H]1C(=O)O)c1c(-c2cc3cc(Cl)ccc3[nH]2)[nH]c2cc(Br)ccc12` [Compound 125, (2-(6-Bromo-5′-chloro-1H,1′H-[2,2′-biindole]-3-carboxamido)ethyl)-L-proline] showed an IC50 of less than 100 nM. Also, the minimal inhibitory concentration (MIC) (in assay [2]; with S. aureus (ATCC29213)) was more than 64 µg/mL each time.

With `O=C1CN(CCNC(=O)c2c(-c3cc4cc(Cl)ccc4[nH]3)[nH]c3cc(Br)ccc23)CCN1` [Compound 127, 6-bromo-5′-chloro-N-(2-(3-oxopiperazin-1-yl)ethyl)-1H,1′H-2,2′-biindole-3-carboxamide], at MRSA Pyk, the half-maximal inhibitory concentration (IC50) is less than 100 nM. Also, the MIC (in assay [2]; in the assay on S. aureus (ATCC29213)) was more than 64 µg/mL each time.

Take `NC(=O)N1CCC(NCCNC(=O)c2c(-c3cc4cc(Cl)ccc4[nH]3)[nH]c3cc(Br)ccc23)CC1` [Compound 131, 6-bromo-N-(2-(1-carbamoylpiperidin-4-ylamino)ethyl)-5′-chloro-1H,1′H-2,2′-biindole-3-carboxamide]: the MIC in assay [2] is 64 µg/mL (≈ 115 µM); in the assay with S. aureus (ATCC29213), more than 64 µg/mL.

Regarding `COC(CNC(=O)c1c(-c2cc3cc(Cl)ccc3[nH]2)[nH]c2cc(Br)ccc12)OC` [Compound 134, 6-Bromo-5′-chloro-N-(2,2-dimethoxyethyl)-1H,1′H-[2,2′-biindole]-3-carboxamide], the MIC (in assay [2]; in the assay on S. aureus (ATCC29213)) was more than 64 µg/mL in each case.

With `CCOC(CCCNC(=O)c1c(-c2cc3cc(Cl)ccc3[nH]2)[nH]c2cc(Br)ccc12)OCC` [Compound 135, 6-Bromo-5′-chloro-N-(4,4-diethoxybutyl)-1H,1′H-[2,2′-biindole]-3-carboxamide], the MIC (in assay [2]; in the assay with S. aureus (ATCC29213)) was more than 64 µg/mL in each case.

`O=C(NCCc1ccncc1)c1c(-c2cc3cc(Cl)ccc3[nH]2)[nH]c2cc(Br)ccc12` [Compound 142, 6-bromo-5′-chloro-N-(2-(pyridin-4-yl)ethyl)-1H,1′H-[2,2′-biindole]-3-carboxamide] gave a half-inhibitory concentration (IC50) against MRSA Pyk of less than 100 nM. For the same compound, the MIC (in assay [2]; in the assay with S. aureus (ATCC29213)) was more than 64 µg/mL each time.

Regarding `O=C(NCCN1CCNCC1=O)c1c(-c2cc3cc(Cl)ccc3[nH]2)[nH]c2cc(Br)ccc12` [Compound 143, 6-bromo-5′-chloro-N-(2-(2-oxopiperazin-1-yl)ethyl)-1H,1′H-[2,2′-biindole]-3-carboxamide], the MIC (in assay [2]; in the assay on S. aureus (ATCC29213)) was more than 64 µg/mL each time.

With `COc1cc2sc(NC(=O)Nc3ccccc3)nc2cc1Br` [Compound 153, 1-(5-bromo-6-methoxybenzo[d]thiazol-2-yl)-3-phenylurea], the MIC (in assay [2]; in the assay on S. aureus (ATCC29213)) was more than 64 µg/mL in each case.

Take `O=C(Nc1ccc([N+](=O)[O-])cc1)Nc1nc2cc(Br)ccc2s1` [Compound 154, 1-(5-bromobenzo[d]thiazol-2-yl)-3-(4-nitrophenyl)urea]: the MIC (in assay [2]; with S. aureus (ATCC29213)) was more than 64 µg/mL each time.

For the compound `O=C(Nc1nc2cc(Br)ccc2s1)Nc1ccc(Cl)cc1C(F)(F)F` [Compound 157, 1-(5-bromobenzo[d]thiazol-2-yl)-3-(4-chloro-2-(trifluoromethyl)phenyl)urea], the MIC in assay [2] was more than 64 µg/mL.

For the compound `COC(=O)c1c(NC(=O)Nc2ccc(Cl)cc2)[nH]c2cc(Br)ccc12` [Compound 181, Methyl 6-bromo-2-(3-(4-chlorophenyl)ureido)-1 H-indole-3-carboxylate], the MIC (in assay [2]; in the assay with S. aureus (ATCC29213)) was more than 64 µg/mL in each case.

For the compound `CC(=O)OCCCNC(=O)c1c(-c2cc3cc(Cl)ccc3[nH]2)[nH]c2cc(Br)ccc12` [Compound 183, 3-(6-Bromo-5′-chloro-1H,1′H-[2,2′-biindole]-3-carboxamido)propyl Acetate], at MRSA Pyk, the IC50 is less than 100 nM. Also, the minimum inhibitory concentration (MIC) (in assay [2]; with S. aureus (ATCC29213)) was more than 64 µg/mL in each case.

Turning to `CN1CCN(CCNC(=O)COc2cc3[nH]c(-c4cc5ccc(Br)cc5[nH]4)cc3cc2Cl)C(c2ccccc2)C1` (stereo not shown) [Compound 194, 2-((6′-Bromo-5-chloro-1H,1′H-[2,2′-biindol]-6-yl)oxy)-N-(2-(4-methyl-2-phenylpiperazin-1-yl)ethyl)acetamide], the MIC (in assay [2]; in the assay with S. aureus (ATCC29213)) was more than 64 µg/mL throughout.

On to `Clc1cnc2nc(-c3cc4ccc(Br)cc4[nH]3)[nH]c2c1` [Compound 209, 2-(6-Bromo-1H-indol-2-yl)-6-chloro-1H-imidazo[4,5-b]pyridine], for which the minimal inhibitory concentration (MIC) (in assay [2]; in the assay with S. aureus (ATCC29213)) was more than 64 µg/mL in each case.

Turning to `Brc1ccc2cc(-c3nc4ncc(Br)cc4[nH]3)[nH]c2c1` [Compound 210, 6-Bromo-2-(6-bromo-1H-indol-2-yl)-1H-imidazo[4,5-b]pyridine], the MIC (in assay [2]; with S. aureus (ATCC29213)) was more than 64 µg/mL in each case.

For the compound `OCCn1c(-c2cc3ccc(Br)cc3[nH]2)nc2cc(Cl)c(Cl)cc21` [Compound 211, 2-(2-(6-Bromo-1H-indol-2-yl)-5,6-dichloro-1H-benzo[d]imidazol-1-yl)ethan-1-ol], the MIC (in assay [2]; with S. aureus (ATCC29213)) was more than 64 µg/mL throughout.

In the case of `CN(C)CCn1c(-c2cc3ccc(Br)cc3[nH]2)nc2cc(Cl)c(Cl)cc21` [Compound 212, 2-(2-(6-Bromo-1H-indol-2-yl)-5,6-dichloro-1H-benzo[d]imidazol-1-yl)-N,N-dimethylethan-1-amine], the MIC (in assay [2]; in the assay with S. aureus (ATCC29213)) was more than 64 µg/mL each time.

On to `O=C(O)Cn1c(-c2cc3ccc(Br)cc3[nH]2)nc2cc(Cl)c(Cl)cc21` [Compound 213, 2-(2-(6-Bromo-1H-indol-2-yl)-5,6-dichloro-1H-benzo[d]imidazol-1-yl)acetic Acid], for which the minimum inhibitory concentration (MIC) (in assay [2]; in the assay with S. aureus (ATCC29213)) was more than 64 µg/mL throughout.

Regarding `CC(C)(C)OC(=O)CCn1c(-c2cc3ccc(Br)cc3[nH]2)nc2cc(Cl)c(Cl)cc21` [Compound 214, tert-Butyl 3-(2-(6-bromo-1H-indol-2-yl)-5,6-dichloro-1H-benzo[d]imidazol-1-yl)propanoate], the minimum inhibitory concentration (MIC) (in assay [2]; in the assay on S. aureus (ATCC29213)) was more than 64 µg/mL throughout.
